Several values for one entry are separate records, joined by “and”; a condition that tells them apart may be missing. Identical values can stand only once. Like-named read-outs stand apart in the source and are kept apart here.
How the values were obtained:
CB1R [1] = molecular target: T1, CB1R (Mus musculus, UniProt P47746); assay: biochemical; format: binding; conditions: for Displacement of [^3H]CP-55,940 from CB1Rs: mouse brain homogenates, data not shown; for Fold higher CB1R affinity than Δ^9-THC: relative to Δ^9-THC Ki
T1 construct: CB1Rs are endogenously expressed in abundant quantities in the CNS; from tissue; host or cells: whole brain of B6SJL mice, crude membrane homogenates

CB1R [2] = molecular target: T1, CB1R; format: biochemical; conditions: for Level of G-protein stimulation relative to Δ^9-THC / Agonist type at mCB1Rs (partial or full): 10 µM; for Agonist type at mCB1Rs (partial or full): compared with full agonist CP-55,940; for G-protein stimulation ([^35S]GTPγS bound): receptor saturating concentration (10 µM), Fig. 3A
NIH Swiss mice [3] = assay: Locomotor activity measured by radiotelemetry in mice; format: in vivo, mouse; conditions: for Locomotor activity (area under the curve) relative to vehicle controls: 10 h time course, n = 5
NIH Swiss mice [4] = assay: Core body temperature measured by radiotelemetry in mice; format: in vivo, mouse; conditions: for Core body temperature area under the curve relative to vehicle controls: 0–10 hr, n = 5; for Depression in core body temperature compared with 30 mg/kg Δ^9-THC: 10 h time course
CB1R [5] = molecular target: CB1R; parameters: method as in PMID 10940540, PMID 21079038; conditions: read-out: Ki values previously reported; cited from earlier work
[6] = Affinity (Ki) for CB1Rs, competition against 0.2 nM [^3H]CP-55,940, mouse whole brain membrane homogenates, mean ± SEM, n = 3–4
[7] = concentration-effect curve, Fig. 3B, n = 3–4
[8] = AM-251 10 mg/kg pretreatment, 30 mg/kg Δ^9-THC, 3 mg/kg JWH-018, 10 mg/kg M1 i.p.

T1 sequence (P47746 whole entry): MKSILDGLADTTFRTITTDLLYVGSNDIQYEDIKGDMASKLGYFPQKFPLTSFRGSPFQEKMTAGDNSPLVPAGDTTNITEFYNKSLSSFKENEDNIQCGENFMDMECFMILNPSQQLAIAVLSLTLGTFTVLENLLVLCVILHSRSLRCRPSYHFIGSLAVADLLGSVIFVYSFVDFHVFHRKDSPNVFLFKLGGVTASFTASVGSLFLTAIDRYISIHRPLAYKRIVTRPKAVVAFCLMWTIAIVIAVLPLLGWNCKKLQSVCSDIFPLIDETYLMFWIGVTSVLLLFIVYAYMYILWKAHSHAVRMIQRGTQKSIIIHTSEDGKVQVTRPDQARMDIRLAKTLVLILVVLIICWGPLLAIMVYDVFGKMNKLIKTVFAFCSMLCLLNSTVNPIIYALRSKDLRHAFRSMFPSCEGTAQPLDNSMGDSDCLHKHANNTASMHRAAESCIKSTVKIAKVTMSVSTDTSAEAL

**Q.** Which Ki (CB1R [1]; [6]) does the source give for `O=C(O)CCCCn1cc(C(=O)c2cccc3ccccc23)c2ccccc21` [M6, 5-(3-(1-naphthoyl)-1H-indol-1-yl)pentanoic acid] here?
**A.** > 10000 nM

**Q.** What about the “Affinity (Ki) for CB1Rs” value (CB1R [1]; competition against 0.2 nM [^3H]CP-55,940, mouse whole brain membrane homogenates, mean ± SEM, n = 3–4) of the same compound?
**A.** fails to bind

**Q.** Which results are given for `CCCCCn1cc(C(=O)c2cccc3ccccc23)c2cc(O)ccc21` [M2, (5-hydroxy-1-pentyl-1H-indol-3-yl)(naphthalen-1-yl)methanone]?
**A.** Ki (CB1R [1]; [6]): 4.22 ± 1.16 nM; Displacement of [^3H]CP-55,940 from CB1Rs (CB1R [1]): completely displaced; Level of G-protein stimulation relative to Δ^9-THC (CB1R [2]): greater; Agonist type at mCB1Rs (partial or full) (CB1R [2]): full; G-protein stimulation ([^35S]GTPγS bound) (CB1R [2]): 0.32 ± 0.03 pmol/mg

**Q.** With `CCCCCn1cc(C(=O)c2cccc3ccccc23)c2c(O)cccc21` [M1, (4-hydroxy-1-pentyl-1H-indol-3-yl)(naphthalen-1-yl)methanone] as the compound, how does the Ki (CB1R [1]; [6]) read?
**A.** 2.6 nM and 2.65 nM

**Q.** And the “Displacement of [^3H]CP-55,940 from CB1Rs” value (shortened to “Displacement”) (CB1R [1])?
**A.** completely displaced

**Q.** What about the “Fold higher CB1R affinity than Δ^9-THC” value (CB1R [1]) of the same compound?
**A.** ~10 fold

**Q.** And the “Level of G-protein stimulation relative to Δ^9-THC” value (CB1R [2])?
**A.** greater

**Q.** What about the “Agonist type at mCB1Rs (partial or full)” value (CB1R [2]) of the same compound?
**A.** partial

**Q.** What about the “Locomotor activity (area under the curve) relative to vehicle controls” value (NIH Swiss mice [3]; 10 mg/kg i.p.) of the same compound?
**A.** significantly decrease

**Q.** And the “Core body temperature area under the curve relative to vehicle controls” value (NIH Swiss mice [4]; 10 mg/kg i.p.)?
**A.** significantly lower than vehicle controls

**Q.** And the “Depression in core body temperature compared with 30 mg/kg Δ^9-THC” value (NIH Swiss mice [4]; 10 mg/kg i.p.)?
**A.** greater depressions

**Q.** Which Ki (CB1R [1]; [6]) does the source give for `O=C(c1cccc2ccccc12)c1cn(CCCCCO)c2ccccc12` [M5, (1-(5-hydroxypentyl)-1H-indol-3-yl)(naphthalen-1-yl)methanone] here?
**A.** 25.2 ± 4.99 nM

**Q.** And the “Displacement” value (CB1R [1])?
**A.** completely displaced

**Q.** And the “Level of G-protein stimulation relative to Δ^9-THC” value (CB1R [2])?
**A.** greater

**Q.** What about the “Agonist type at mCB1Rs (partial or full)” value (CB1R [2]) of the same compound?
**A.** full

**Q.** For `CCCCCn1cc(C(=O)c2cccc3ccccc23)c2cccc(O)c21` [M4], which Ki (CB1R [1]; [6]) is on record?
**A.** 20.8 ± 4.85 nM

**Q.** And the “Displacement” value (CB1R [1])?
**A.** completely displaced

**Q.** What about the “Level of G-protein stimulation relative to Δ^9-THC” value (CB1R [2]) of the same compound?
**A.** equivalent

**Q.** What about the “Agonist type at mCB1Rs (partial or full)” value (CB1R [2]) of the same compound?
**A.** partial

**Q.** What does the source list for `CCCCCn1cc(C(=O)c2cccc3ccccc23)c2ccc(O)cc21` [M3, (6-hydroxy-1-pentyl-1H-indol-3-yl)(naphthalen-1-yl)methanone]?
**A.** Ki (CB1R [1]; [6]): 17.2 ± 3.58 nM; Displacement of [^3H]CP-55,940 from CB1Rs (CB1R [1]): completely displaced; Level of G-protein stimulation relative to Δ^9-THC (CB1R [2]): greater; Agonist type at mCB1Rs (partial or full) (CB1R [2]): full

**Q.** What does the source list for `CCCCCCC(C)(C)c1ccc([C@@H]2C[C@H](O)CC[C@H]2CCCO)c(O)c1` [CP-55,940, reference compound]?
**A.** Ki (CB1R [1]; competition against 0.2 nM [^3H]CP-55,940, mouse whole brain membrane homogenates, mean ± SEM, n = 3–4, read-out: Affinity (Ki) for CB1Rs): 0.26 ± 0.12 nM; Agonist type at mCB1Rs (partial or full) (CB1R [2]): full; Maximal efficacy (Emax) of G-protein activation (CB1R [2]; [7]): 0.28 ± 0.02 pmol/mg; EC50 (CB1R [2]; concentration-effect curve, Fig. 3B, n = 3–4, read-out: EC50 of G-protein activation): 3.36 ± 2.35 nM; G-protein stimulation ([^35S]GTPγS bound) (CB1R [2]): 0.39 ± 0.02 pmol/mg

**Q.** With `Cc1c(C(=O)NN2CCCCC2)nn(-c2ccc(Cl)cc2Cl)c1-c1ccc(I)cc1` [AM-251, reference compound] as the compound, how does the “Effect of Δ^9-THC, JWH-018 and M1 on locomotor activity after antagonist pretreatment” value (NIH Swiss mice [3]; [8]) read?
**A.** significantly attenuated

**Q.** And the “Core body temperature after antagonist pretreatment of cannabinoid-treated mice” value (NIH Swiss mice [4]; [8])?
**A.** restored core body temperature to control levels

**Q.** For `CCCCCn1cc(C(=O)c2cccc3ccccc23)c2ccccc21` [JWH-018, (1-pentyl-1H-indol-3-yl)-1-naphthalenyl-methanone], which Ki (CB1R [1]; [6]) is on record?
**A.** 1.2 nM and 1.22 nM

**Q.** And the “Fold higher CB1R affinity than Δ^9-THC” value (CB1R [1])?
**A.** ~10 fold

**Q.** And the “Level of G-protein stimulation relative to Δ^9-THC” value (CB1R [2])?
**A.** greater

**Q.** And the “Agonist type at mCB1Rs (partial or full)” value (CB1R [2])?
**A.** full

**Q.** What about the “Maximal efficacy (Emax) of G-protein activation” value (CB1R [2]; [7]) of the same compound?
**A.** 0.29 ± 0.02 pmol/mg

**Q.** And the “G-protein stimulation ([^35S]GTPγS bound)” value (CB1R [2])?
**A.** 0.29 ± 0.02 pmol/mg

**Q.** And the “Locomotor activity (area under the curve) relative to vehicle controls” value (NIH Swiss mice [3]; 3 mg/kg i.p.)?
**A.** significantly decrease

**Q.** What about the “Core body temperature area under the curve relative to vehicle controls” value (NIH Swiss mice [4]; 3 mg/kg i.p.) of the same compound?
**A.** significantly lower than vehicle controls

**Q.** What about the “Depression in core body temperature compared with 30 mg/kg Δ^9-THC” value (NIH Swiss mice [4]; 3 mg/kg i.p.) of the same compound?
**A.** greater depressions

**Q.** And the Ki (CB1R [5])?
**A.** 9 nM

Reference: article PMC3130777, “Phase I Hydroxylated Metabolites of the K2 Synthetic Cannabinoid JWH-018 Retain In Vitro and In Vivo Cannabinoid 1 Receptor Affinity and Activity” (PLoS ONE, 2011)
